Measurements from patent US20120255051A1, “HERBICIDE TOLERANT PLANTS” (priority 2009, published 2012).

Tested on: Brassica plants comprising mutant AHAS alleles
Assay: Field trial, pre-planting treatment (0, 10, 20, 30 g a.i./ha), two locations in Canada: ERG, EST1, EST2, PPTOX, VIG1, VIG2, VIG3 scores
Format: in vivo, Brassica napus
Settings: for establishment (EST2) score, Av / phytotoxicity (PPTOX) score, Av / vigor1 (VIG1) score, Av / vigor2 (VIG2) score, Av: AHAS1 HETO108/AHAS3 HETO104
From the text: Tests were set up and conducted to asses the growth and performance of plants comprising AHAS full knock-out alleles, and to further analyze the correlation between the presence of full knockout and missense AHAS genes in Brassica plants and plant growth and herbicide tolerance of the Brassica plants in the field. To this end, the Brassica plants identified in Example 1 and 2 were backcrossed two times with an elite parent line, and subsequently selfed twice to obtain homozygous plants (BC2S2). Plants were grown as row plots in a split plot design with three replicates (main plots=herbicide treatments, subplots=genotypes) at two locations in Canada. Treatment pre-planting was carried out on the soil about two days before sowing with a dose of 0 (treatment A), 10 (treatment B), 20 (treatment C) or 30 (treatment D) g a.i./ha of thiencarbazone methyl. Herbicide tolerance was measured by scoring for different parameters. The parameter emergence (ERG) was scored at the cotyledon stage on a scale 1-9, where 1 means late emergence and 9 means early emergence. Establishment was scored 14 days after sowing (EST1) and 21 days after sowing (EST2). Scores were from 1 to 9, where 1 is the worst establishment (least plants that emerged), and 9 is the best establishment (most plants emerged). Phytotoxicity (PPTOX) was determined after establishment. Plants were evaluated on a scale of 1 to 9, where 1=completely yellowing, 5=50% of plant is yellow and 9=no yellowing. The vigor scores (see above) were determined at 1-2 leaf stage (VIG1), 7 days after VIG1 (VIG2) and 14 days after VIG1 (VIG3). The average values (Av) and standard deviations (SD) of the scores for the different parameters are represented in Table 7a-g.
Further, the contribution of the knock-out allele to herbicide tolerance conferred by the missense allele was calculated. First, the scores were corrected for a possible effect of the growth per se, independent of herbicide treatment. To this end, the scores for treatments B, C and D were divided by the scores for treatment A for the same genotype and for the same parameter (corrected herbicide tolerance scores). Next, the effect of the knock-out allele to these corrected herbicide tolerance scores obtained by the missense allele was calculated. Therefore, the corrected herbicide tolerance scores for the missense—knock-out allele combination was divided by the corrected herbicide tolerance scores for the missense allele—wild-type combination. In case the knock-out allele has no effect on herbicide tolerance conferred by the missense allele, this ratio should be 1. In case the knock-out allele positively contributes to the herbicide tolerance conferred by the missense allele, this ratio should be higher than 1. The results for the contribution of the knock-out allele to herbicide tolerance conferred by the missense allele as calculated above are shown in table 8.

[1] = AHAS1 HETO108, AHAS3 HETO104, treatment B 10 g a.i./ha pre-planting, Location A
[2] = AHAS1 HETO108, AHAS3 HETO104, treatment B 10 g a.i./ha pre-planting, Location B
[3] = AHAS1 HETO108, AHAS3 HETO104, treatment C 20 g a.i./ha pre-planting, Location A
[4] = AHAS1 HETO108, AHAS3 HETO104, treatment C 20 g a.i./ha pre-planting, Location B
[5] = AHAS1 HETO108, AHAS3 HETO104, treatment D 30 g a.i./ha pre-planting, Location A
[6] = AHAS1 HETO108, AHAS3 HETO104, treatment D 30 g a.i./ha pre-planting, Location B
[7] = AHAS1 HETO108, AHAS3 HETO111, treatment B 10 g a.i./ha pre-planting, Location A
[8] = AHAS1 HETO108, AHAS3 HETO111, treatment B 10 g a.i./ha pre-planting, Location B
[9] = AHAS1 HETO108, AHAS3 HETO111, treatment C 20 g a.i./ha pre-planting, Location A
[10] = AHAS1 HETO108, AHAS3 HETO111, treatment C 20 g a.i./ha pre-planting, Location B
[11] = AHAS1 HETO108, AHAS3 HETO111, treatment D 30 g a.i./ha pre-planting, Location A
[12] = AHAS1 HETO108, AHAS3 HETO111, treatment D 30 g a.i./ha pre-planting, Location B
[13] = AHAS1 HETO108, AHAS3 WT (HETO108+HETO104 series), treatment B 10 g a.i./ha pre-planting, Location A
[14] = AHAS1 HETO108, AHAS3 WT (HETO108+HETO104 series), treatment B 10 g a.i./ha pre-planting, Location B
[15] = AHAS1 HETO108, AHAS3 WT (HETO108+HETO104 series), treatment C 20 g a.i./ha pre-planting, Location A
[16] = AHAS1 HETO108, AHAS3 WT (HETO108+HETO104 series), treatment C 20 g a.i./ha pre-planting, Location B
[17] = AHAS1 HETO108, AHAS3 WT (HETO108+HETO104 series), treatment D 30 g a.i./ha pre-planting, Location A
[18] = AHAS1 HETO108, AHAS3 WT (HETO108+HETO104 series), treatment D 30 g a.i./ha pre-planting, Location B
[19] = AHAS1 HETO108, AHAS3 WT (HETO108+HETO111 series), treatment B 10 g a.i./ha pre-planting, Location A
[20] = AHAS1 HETO108, AHAS3 WT (HETO108+HETO111 series), treatment B 10 g a.i./ha pre-planting, Location B
[21] = AHAS1 HETO108, AHAS3 WT (HETO108+HETO111 series), treatment C 20 g a.i./ha pre-planting, Location A
[22] = AHAS1 HETO108, AHAS3 WT (HETO108+HETO111 series), treatment C 20 g a.i./ha pre-planting, Location B
[23] = AHAS1 HETO108, AHAS3 WT (HETO108+HETO111 series), treatment D 30 g a.i./ha pre-planting, Location A
[24] = AHAS1 HETO108, AHAS3 WT (HETO108+HETO111 series), treatment D 30 g a.i./ha pre-planting, Location B
[25] = 10 g a.i./ha pre-planting (B), Location A
[26] = 10 g a.i./ha pre-planting (B), Location B
[27] = 20 g a.i./ha pre-planting (C), Location A
[28] = 20 g a.i./ha pre-planting (C), Location B

COC(=O)c1csc(C)c1S(=O)(=O)NC(=O)n1nc(OC)n(C)c1=O [thiencarbazone-methyl, methyl 4-[(4,5-dihydro-3-methoxy-4-methyl-5-oxo-1H-1,2,4-triazol-1-yl)carbonylsulfamoyl]-5-methylthiophene-3-carboxylate]
emergence (ERG) score Av [1]: 6.00
establishment (EST1) score Av, 14 days after sowing [1]: 6.33
emergence (ERG) score Av [2]: 4.00
establishment (EST1) score Av, 14 days after sowing [2]: 5.00
emergence (ERG) score Av [3]: 4.00
establishment (EST1) score Av, 14 days after sowing [3]: 4.00
emergence (ERG) score Av [4]: 5.00
establishment (EST1) score Av, 14 days after sowing [4]: 5.00
emergence (ERG) score Av [5]: 5.00
establishment (EST1) score Av, 14 days after sowing [5]: 5.00
emergence (ERG) score Av [6]: 4.67
establishment (EST1) score Av, 14 days after sowing [6]: 5.33
emergence (ERG) score Av [7]: 5.33
establishment (EST1) score Av, 14 days after sowing [7]: 6.00
emergence (ERG) score Av [8]: 4.33
establishment (EST1) score Av, 14 days after sowing [8]: 6.00
emergence (ERG) score Av [9]: 4.67
establishment (EST1) score Av, 14 days after sowing [9]: 5.33
emergence (ERG) score Av [10]: 5.00
establishment (EST1) score Av, 14 days after sowing [10]: 5.67
emergence (ERG) score Av [11]: 5.00
establishment (EST1) score Av, 14 days after sowing [11]: 5.33
emergence (ERG) score Av [12]: 4.33
establishment (EST1) score Av, 14 days after sowing [12]: 3.67
emergence (ERG) score Av [13]: 6.67
establishment (EST1) score Av, 14 days after sowing [13]: 6.67
emergence (ERG) score Av [14]: 4.33
establishment (EST1) score Av, 14 days after sowing [14]: 4.67
emergence (ERG) score Av [15]: 5.00
establishment (EST1) score Av, 14 days after sowing [15]: 5.00
emergence (ERG) score Av [16]: 4.33
establishment (EST1) score Av, 14 days after sowing [16]: 4.67
emergence (ERG) score Av [17]: 4.67
establishment (EST1) score Av, 14 days after sowing [17]: 4.67
emergence (ERG) score Av [18]: 5.00
establishment (EST1) score Av, 14 days after sowing [18]: 5.33
emergence (ERG) score Av [19]: 6.33
establishment (EST1) score Av, 14 days after sowing [19]: 6.33
emergence (ERG) score Av [20]: 4.33
establishment (EST1) score Av, 14 days after sowing [20]: 5.33
emergence (ERG) score Av [21]: 5.33
establishment (EST1) score Av, 14 days after sowing [21]: 6.00
emergence (ERG) score Av [22]: 5.00
establishment (EST1) score Av, 14 days after sowing [22]: 5.67
emergence (ERG) score Av [23]: 5.00
establishment (EST1) score Av, 14 days after sowing [23]: 5.33
emergence (ERG) score Av [24]: 3.33
establishment (EST1) score Av, 14 days after sowing [24]: 3.67
establishment (EST2) score, Av [25]: 6.33
phytotoxicity (PPTOX) score, Av [25]: 6.00
vigor1 (VIG1) score, Av [25]: 6.33
vigor2 (VIG2) score, Av [25]: 7.33
establishment (EST2) score, Av [26]: 5.00
vigor2 (VIG2) score, Av [26]: 5.00
establishment (EST2) score, Av [27]: 4.33
vigor1 (VIG1) score, Av [27]: 5.00
vigor2 (VIG2) score, Av [27]: 6.00
establishment (EST2) score, Av [28]: 5.00
phytotoxicity (PPTOX) score, Av [28]: 6.00
vigor1 (VIG1) score, Av [28]: 5.00
